Results reported in the NIST ThermoML archive (doi:10.1016/j.jct.2015.02.004).
± gives the expanded uncertainty stated by the source.

Settings: 298.15 K; 101.33 kPa; Liquid; Pycnometric method

SMILES | mass density [kg/m3]
COC(C)(C)C [2-methoxy-2-methylpropane] | 734.1 ± 1.9
CC(C)=O [acetone] | 783.8 ± 1.9
CC#N [acetonitrile] | 776.3 ± 1.9
CCCCO [butan-1-ol] | 805.5 ± 2

Other lines, results leading:

mass density [kg/m3] | SMILES
784.2 ± 1.9 | CCO [ethanol]
893.4 ± 2.1 | CCOC(C)=O [ethyl acetate]
786.3 ± 1.9 | CO [methanol]
780.6 ± 1.9 | CC(C)O [propan-2-ol]
